In ChEMBL document CHEMBL1201862, “PubChem BioAssay data set” (2004):
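How tested: cells in 96-well plates exposed to compound for 48 hours at five concentrations. GI50 = concentration required for 50% inhibition of growth.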 Calls of active or inactive are those of the source. No stated cut-off is given here; in the data, active = GI50 up to about 1.1 µM and inactive = higher.

What was measured:
Test in all cases: inhibition of tumour cell growth, NCI panel, 48 h
SF-539 = tested on: SF-539
SF-268 = tested on: SF-268
SNB-19 = tested on: SNB-19
EKVX = tested on: EKVX
OVCAR-4 = tested on: OVCAR-4
Malme-3M = tested on: Malme-3M
COLO 205 = tested on: COLO 205
SK-MEL-28 = tested on: SK-MEL-28
LOX IMVI = tested on: LOX IMVI
CAKI-1 = tested on: CAKI-1
MCF7 = tested on: MCF7
UO-31 = tested on: UO-31
SN12C = tested on: SN12C
HCT-15 = tested on: HCT-15
Hs-578T = tested on: Hs-578T
TK-10 = tested on: TK-10
A549 = tested on: A549
SF-295 = tested on: SF-295
MDA-MB-231 = tested on: MDA-MB-231
OVCAR-8 = tested on: OVCAR-8

| Compound | GI50 (SF-539) | GI50 (SF-268) | GI50 (SNB-19) | GI50 (EKVX) | GI50 (OVCAR-4) | GI50 (Malme-3M) | GI50 (COLO 205) | GI50 (SK-MEL-28) | GI50 (LOX IMVI) | GI50 (CAKI-1) | GI50 (MCF7) | GI50 (UO-31) | GI50 (SN12C) | GI50 (HCT-15) | GI50 (Hs-578T) | GI50 (TK-10) | GI50 (A549) | GI50 (SF-295) | GI50 (MDA-MB-231) | GI50 (OVCAR-8) |
| --- | --- | --- | --- | --- | --- | --- | --- | --- | --- | --- | --- | --- | --- | --- | --- | --- | --- | --- | --- | --- |
| O=C1OCN(c2ccccc2)C12CCN(Cc1ccccc1)CC2 | 20.8 µM (inactive) | 43 µM (inactive) | 67 µM (inactive) | > 100 µM (inactive) | 35.8 µM (inactive) | 18.1 µM (inactive) | 18.8 µM (inactive) | 19.3 µM (inactive) | 14.6 µM (inactive) | 45 µM (inactive) | 32.6 µM (inactive) | 51.3 µM (inactive) | 42.6 µM (inactive) | 33.7 µM | 23.9 µM (inactive) | 32.8 µM (inactive) | 41.2 µM (inactive) | 16.4 µM (inactive) | 21.8 µM (inactive) | 39.4 µM (inactive) |
| CC(C)C(O)(C(C)C)C(C)C | > 100 µM (inactive) | > 100 µM (inactive) | > 100 µM (inactive) | > 100 µM (inactive) | > 100 µM (inactive) | > 100 µM (inactive) | > 100 µM (inactive) | > 100 µM (inactive) | > 100 µM (inactive) | > 100 µM (inactive) | > 100 µM (inactive) | > 100 µM (inactive) | > 100 µM (inactive) | > 100 µM | > 100 µM (inactive) | > 100 µM (inactive) | > 100 µM (inactive) | > 100 µM (inactive) | > 100 µM (inactive) | > 100 µM (inactive) |
| COc1ccc(/C=C2\CCC(CN(C)C)C2=O)cc1OC (stereo not given) | 10.5 µM (inactive) | 10.7 µM (inactive) | 16.5 µM (inactive) | 16.1 µM (inactive) | 7.64 µM (inactive) | 3.95 µM (inactive) | 2.07 µM (inactive) | 5.48 µM (inactive) | 1.91 µM (inactive) | 4.8 µM (inactive) | 2.56 µM (inactive) | 11.5 µM (inactive) | 3.43 µM (inactive) | 2.9 µM | 4.3 µM (inactive) | 7.14 µM (inactive) | 17.2 µM (inactive) | 15.1 µM (inactive) | 2.35 µM (inactive) | 2.9 µM (inactive) |
| O=[N+]([O-])C[C@@]12O[C@]3(O)C4C5CC(C6C5C3C61)C42 (stereo not given in full) | > 100 µM (inactive) | > 100 µM (inactive) | > 100 µM (inactive) | > 100 µM (inactive) | > 100 µM (inactive) | > 100 µM (inactive) | > 100 µM (inactive) | > 100 µM (inactive) | > 100 µM (inactive) | > 100 µM (inactive) | > 100 µM (inactive) | > 100 µM (inactive) | > 100 µM (inactive) | > 100 µM | > 100 µM (inactive) | > 100 µM (inactive) | > 100 µM (inactive) | > 100 µM (inactive) | > 100 µM (inactive) | > 100 µM (inactive) |
| COc1ccc(-c2nnc3n(C)c4ccccc4n3c2=O)cc1 | 32.7 µM (inactive) | 29.6 µM (inactive) | 91.8 µM (inactive) | > 100 µM (inactive) | > 100 µM (inactive) | > 100 µM (inactive) | > 100 µM (inactive) | > 100 µM (inactive) | > 100 µM (inactive) | 76 µM (inactive) | > 100 µM (inactive) | 42.8 µM (inactive) | 59 µM (inactive) | > 100 µM | 33 µM (inactive) | 89.1 µM (inactive) | > 100 µM (inactive) | 29.7 µM (inactive) | 18.2 µM (inactive) | 56.1 µM (inactive) |
| CN1c2c(O)nc(N)nc2NCC1CCNc1ccc(C(=O)NC(CCC(=O)O)C(=O)O)cc1 (stereo not given) | 132 µM (inactive) | 1110 µM (inactive) | 1820 µM (inactive) | 1260 µM (inactive) | 893 µM (inactive) | 1410 µM (inactive) | 1330 µM (inactive) | 695 µM (inactive) | 4.06 µM (inactive) | 328 µM (inactive) | 324 µM (inactive) | 1310 µM (inactive) | 540 µM (inactive) | 1430 µM | 2120 µM (inactive) | 1030 µM (inactive) | 242 µM (inactive) | 187 µM (inactive) | 1530 µM (inactive) | 1160 µM (inactive) |
| CC(=O)O[C@H]1C(=O)[C@@]2(C)[C@H]([C@H](OC(=O)c3ccncc3)[C@]3(O)C[C@H](OC(=O)[C@H](O)[C@@H](NC(=O)c4ccccc4)c4ccccc4)C(C)=C1C3(C)C)[C@]1(OC(C)=O)CO[C@@H]1C[C@@H]2O | 0.875 µM (active) | > 11.6 µM (inactive) | 4.51 µM (inactive) | > 25 µM (inactive) | > 25 µM (inactive) | 2.31 µM (inactive) | 2.08 µM (inactive) | > 11.6 µM (inactive) | 1.42 µM (inactive) | > 25 µM (inactive) | 0.918 µM (active) | > 25 µM (inactive) | > 16.4 µM (inactive) | > 25 µM | 1.22 µM (inactive) | > 25 µM (inactive) | 18 µM (inactive) | > 16.9 µM (inactive) | > 20 µM (inactive) | 8.53 µM (inactive) |
